# Reference: patent US10695314B2, “Antimicrobial composition containing 7,10-epoxyoctadeca-7,9-dienoic acid as active ingredient” (priority 2016, dated 2020)
# Read-outs that look alike come from different tables or passages of the source.
# Key:
# [1] = test system: Staphylococcus aureus ATCC 29213; experiment: Minimal inhibitory concentration (MIC), broth microdilution per CLSI; assay type: cell-based; details: strain 29213 (ATCC 29213), antibiotic alone
# Description: The minimum inhibitory concentration (MIC) of antibiotics and the activity of 7,10-EODA of the present invention against Staphylococcus aureus strains were measured according to the CLSI guideline (CLSI document M100-517, 2007). Specifically, each antibiotic or 7,10-EODA was diluted 2-fold (200-0.97 μg/mL) by adding MHB (Mueller-Hinton Broth) to a 96-well microtiter plate. In the mid-exponential phase (0.5 OD600), the culture was diluted 10-fold with MHB and 0.1 mL aliquots of the diluent were added to wells containing the serially diluted test reagent and cultured at 37° C. for 12 hours. About the end of the culture period, the cell density was measured at an optical density of 600 nm (OD600) using a […].
# (§1) Specifically, the minimal inhibitory concentration (MIC) was measured according to the method of Experimental Example 4 above, and the degree of inhibition (Agar diffusion analysis) (zone of inhibition; ZOI) was measured according to the method of Experimental Example 5 above.
# [2] = test system: MDRSA 01ST001; experiment: Agar disk diffusion analysis, zone of inhibition (ZOI); assay type: cell-based, Staphylococcus aureus; details: for ZOI without 7.10-EODA / ZOI with 7.10-EODA: strain 001; for ZOI without 7.10-EODA: antibiotic ½×MIC alone; for ZOI with 7.10-EODA: antibiotic ½×MIC with 7,10-EODA ¼×MIC; for antimicrobial activity effect in combination with 7,10-EODA: antibiotic treated in combination with 7,10-EODA, Table 1 summary; for antimicrobial activity, disk diffusion: 100 μg each, FIG. 4
# Description: (§2) For synergy effect screening, a 0.1 mL aliquot of MRSA or MSSA strain (5×10^5 CFU/mL) cultured in a log-phase on TSA plates was inoculated. […] A disk including DMSO alone or 7,10-EODA alone (¼×MIC) was used as a control group. The plates were cultured under conditions of […] and 24 hours, and a synergistic effect was observed when the disk periphery including both antibiotic and 7,10-EODA was at least 5 mm in zone of inhibition (ZOI).
# Specifically, in order to compare the antimicrobial activity of the 7,10-EODA or the antibiotic of the present invention against the MDRSA 01ST001 strain, the MDRSA 01ST001 strain was treated with the 7,10-EODA (E 100 μg) of the present invention, streptomycin (S, 100 μg), ampicillin (A, 100 μg), oxacillin (O, 100 μg), vancomycin (V, 100 μg), or penicillin (P, 100 μg), according to the method described in Experimental Example 5.
# as §1
# [3] = test system: Staphylococcus aureus ATCC 29213; experiment: as above; assay type: cell-based; details: strain 29213; for ZOI without 7.10-EODA: antibiotic ½×MIC alone; for ZOI with 7.10-EODA: antibiotic ½×MIC with 7,10-EODA ¼×MIC
# Description: as §2, §1
# [4] = test system: MDRSA 01ST001; experiment: Minimal inhibitory concentration (MIC), broth microdilution per CLSI
# [5] = test system: MRSA 01ST001 (MDRSA 01ST001); experiment: Antimicrobial activity on solid medium (clear zone around filter paper); assay type: cell-based, Staphylococcus aureus; details: for clear zone on agar plate: 100 μg per filter paper, 37° C., 2 to 3 days, FIG. 1
# Description: (§3) First, 1.5% of potato agar was added to the YDP medium, sterilized, and then an agar plate hardened by pouring about 20 ml in a plastic Petri dish was used. MRSA 01ST001 was diluted to about 107/ml, and then about 500 μl was dispersed evenly on the agar plate.
# (§4) The size of the clear zone around the filter paper shown after the culture at 37° C. for 2 to 3 days after the inoculation was measured to confirm the degree of antimicrobial activity. At this time, vancomycin 100 μg, oxacillin 100 μg, ampicillin 100 μg, streptomycin 100 μg, and penicillin 100 μg were used as control groups.
# (§5) The antimicrobial activity can be confirmed with the degree showing the clear zone on the agar plate. It is judged that the larger the clear zone, the higher the antimicrobial activity. The results are illustrated in FIG. 1 and FIG. 2.
# (§6) The results are illustrated in FIG. 3. The experiment was carried out in the same manner as in Example 1-2.
# [6] = test system: Staphylococcus aureus ATCC 29213; experiment: as above; assay type: cell-based; details: FIG. 3
# Description: as §3, §4, §5, §6
# [7] = Staphylococcus aureus, ATCC29213, read-out: MIC
# [8] = strain 001 (MDRSA 01ST001), antibiotic alone
Compound,"MIC [1, 7] [µg/mL]",ZOI without 7.10-EODA [2] [mm],ZOI with 7.10-EODA [2] [mm],ZOI without 7.10-EODA [3] [mm],ZOI with 7.10-EODA [3] [mm],MIC ([4]; Staphylococcus aureus) [µg/mL],"antimicrobial activity effect in combination with 7,10-EODA [2]",MIC [1] [µg/mL],"MIC [4, 8] [µg/mL]","antimicrobial activity, disk diffusion [2]",clear zone on agar plate [5],"antimicrobial activity on solid medium ([5]; MDRSA 01ST001, FIG. 3)",antimicrobial activity on solid medium [6],"degree of decrease of the MIC90 value of penicillin versus no 7,10-EODA ([4]; 7,10-EODA at 1/16 of its original MIC90)","degree of decrease of the MIC90 value of penicillin versus no 7,10-EODA ([4]; 7,10-EODA at ⅛ of its original MIC90)","MIC90 value of penicillin ([4]; 7,10-EODA not used in combination, OD600) [µg/mL]","MIC90 value of penicillin ([4]; in combination with 7.5 μg/mL 7,10-EODA (1/16 of its MIC90)) [µg/mL]","MIC90 value of penicillin ([4]; in combination with 15.0 μg/mL 7,10-EODA (⅛ of its MIC90)) [µg/mL]"
"CC1=C(C(=O)O)N2C(=O)[C@@H](NC(=O)[C@H](N)c3ccccc3)[C@H]2SC1 [CEP, cephalexin]",1.97,10.1 ± 1.3,13.1,15.3 ± 0.1,15.3,1000,–,–,–,–,–,–,–,–,–,–,–,–
"O=C(O)c1cn(C2CC2)c2cc(N3CCNCC3)c(F)cc2c1=O [CIP, ciprofloxacin]",–,6.0 ± 0.0,13.2,9.6 ± 0.2,13.2,–,strong antimicrobial activity effect,–,–,–,–,–,–,–,–,–,–,–
"O=C(N[C@H](CO)[C@H](O)c1ccc([N+](=O)[O-])cc1)C(Cl)Cl [CPL, chloramphenicol]",10,13.2 ± 0.4,13.9,7.4 ± 0.2,7.21,10,–,–,–,–,–,–,–,–,–,–,–,–
"CN(C)CCCN1c2ccccc2Sc2ccc(Cl)cc21 [CPZ, chlorpromazine]",125,7.2 ± 0.1,12.0,6.0 ± 0.0,8.05,62.5,–,–,–,–,–,–,–,–,–,–,–,–
"Oc1cc(Cl)ccc1Oc1ccc(Cl)cc1Cl [IRG, irgasan]",–,12.4 ± 0.3,13.8,11.1 ± 0.5,10.0,–,–,0.1,0.1,–,–,–,–,–,–,–,–,–
"CO[C@H]1/C=C/O[C@@]2(C)Oc3c(C)c(O)c4c(O)c(c(/C=N/N5CCN(C)CC5)c(O)c4c3C2=O)NC(=O)/C(C)=C\C=C\[C@H](C)[C@H](O)[C@@H](C)[C@@H](O)[C@@H](C)[C@H](OC(C)=O)[C@@H]1C [RIF, rifampicin]",5,18.3 ± 0.2,20.2,21.0 ± 0.8,–,5,–,–,–,–,–,–,–,–,–,–,–,–
"[H]/N=C(/N)N[C@H]1[C@H](O)[C@@H](O)[C@H](O[C@@H]2O[C@@H](C)[C@](O)(C=O)[C@H]2O[C@@H]2O[C@@H](CO)[C@H](O)[C@@H](O)[C@@H]2NC)[C@@H](N/C(N)=N\[H])[C@@H]1O [STP, streptomycin]",3,6.0 ± 0.0,12.9,6.0 ± 0.0,11.4,62.5,strong antimicrobial activity effect,–,–,resistant,no clear zone appeared,–,–,–,–,–,–,–
"COc1cc(Cc2cnc(N)nc2N)cc(OC)c1OC [TMP, trimethoprim]",7.8,6.0 ± 0.0,6.00,8.9 ± 0.1,12.3,7.8,–,–,–,–,–,–,–,–,–,–,–,–
CN[C@H](CC(C)C)C(=O)N[C@H]1C(=O)N[C@@H](CC(N)=O)C(=O)N[C@H]2C(=O)N[C@H]3C(=O)N[C@H](C(=O)N[C@H](C(=O)O)c4cc(O)cc(O)c4-c4cc3ccc4O)[C@H](O)c3ccc(c(Cl)c3)Oc3cc2cc(c3O[C@@H]2O[C@H](CO)[C@@H](O)[C@H](O)[C@H]2O[C@H]2C[C@](C)(N)[C@H](O)[C@H](C)O2)Oc2ccc(cc2Cl)[C@H]1O [vancomycin],–,–,–,–,–,–,–,–,–,–,clear zone appeared,same antimicrobial activity,same antimicrobial activity,–,–,–,–,–
penicillin,–,7.1 ± 0.1,13.6,12.9 ± 0.4,13.2,–,strong antimicrobial activity effect,0.5,1000.0,resistant,no clear zone appeared,–,–,1/32,¼,350,87.5,10.9
